Results on 16 compounds are retold here after ChEMBL document CHEMBL5244279, “Perspectives on SARS-CoV-2 Main Protease Inhibitors” (J Med Chem, 2021).

The term IC50 denotes the concentration at which inhibition is half-maximal. As a reminder, the Ki is the dissociation constant of the complex between target and ligand, obtained from inhibition or displacement. Broadly, the half-life is the time in which the quantity being followed falls by half. What is called AUC is concentration integrated over time. Broadly, the CC50 is the concentration that lowers cell viability or growth by half. A word on the clearance: it is the rate of elimination divided by the concentration. By EC50 is commonly meant the concentration that produces a half-maximal response. As a reminder, the MRT is the average time that molecules of a dose stay in the body. The term bioavailability denotes dose-corrected exposure relative to a reference, in per cent.

Data set [1] concerns the target T1, Replicase polyprotein 1ab (Severe acute respiratory syndrome coronavirus 2, UniProt P0DTD1). Nature of the data set: Inhibition of N-terminal MBP-tagged SARS CoV-2 Main protease by fluorescence based analysis.
Data set [2] is described as follows: Binding affinity to SARS CoV Main protease incubated for 20 mins by reverse-phase HPLC analysis. Also on record: species or system Severe acute respiratory syndrome-related coronavirus.
Data set [3] is described as follows: Inhibition of SARS CoV Main protease using MCA-AVLQSGFR-Lys(DNP)-Lys-NH2 peptide as substrate by fluorescence based analysis. Also noted: species or system Severe acute respiratory syndrome-related coronavirus.
Data set [4] in a line: Inhibition of SARS CoV Main protease using 2-aminobenzoyl-SVTLQSG-Tyr(NO2)-R peptide as substrate by FRET assay. Also noted: species or system Severe acute respiratory syndrome-related coronavirus.
In data set [5] the target is T1, Replicase polyprotein 1ab. Nature of the data set: Inhibition of SARS CoV-2 Main protease using MCA-AVLQSGFR-Lys(DNP)-Lys-NH2 peptide as substrate by fluorescence based analysis.
The nature of data set [6]: Half life in Beagle dog at 5 mg/kg, iv measured upto 24 hrs by LC-MS/MS analysis. Format: ADME, organism-based, Canis lupus familiaris. The following applies: in vivo.
Data set [7] in a line: AUC in Beagle dog at 5 mg/kg, iv measured upto 24 hrs by LC-MS/MS analysis. It counts as ADME, organism-based, Canis lupus familiaris. Also on record: time < 24 hrs, dose 5 mg/kg, route iv. Conditions: in vivo.
The nature of data set [8]: Cytotoxicity against human Huh-7 cells assessed as reduction of cell viability. Format: toxicity, cell-based.
The nature of data set [9]: Clearance in Sprague-Dawley rat at 10 mg/kg, iv measured upto 24 hrs by LC-MS/MS analysis. The following applies: in vivo. Format: ADME, organism-based.
The nature of data set [10]: Cytotoxicity against African green monkey Vero E6 cells assessed as reduction of cell viability by CellTiterGlo assay. Format: toxicity, cell-based, Vero C1008. Conditions: chlorocebus sabaeus.
The nature of data set [11]: Clearance in Beagle dog at 5 mg/kg, iv measured upto 24 hrs by LC-MS/MS analysis. Format: ADME, organism-based, Canis lupus familiaris. The following applies: in vivo.
Data set [12] is described as follows: Cytotoxicity against mouse L929 cells assessed as reduction of cell viability. It counts as toxicity, cell-based.
Data set [13] in a line: AUC in Sprague-Dawley rat at 10 mg/kg, iv measured upto 24 hrs by LC-MS/MS analysis. Format: ADME, organism-based. Also noted: time < 24 hrs, dose 10 mg/kg, route iv. Conditions: in vivo.
A short description of data set [14]: Half life in Sprague-Dawley rat at 10 mg/kg, iv measured upto 24 hrs by LC-MS/MS analysis. The following applies: in vivo. It counts as ADME, organism-based.
Data set [15] can be described thus: Cytotoxicity against cat CRFK cells assessed as reduction of cell viability. It counts as toxicity, cell-based, Felis catus.
A short description of data set [16]: Cytotoxicity against African green monkey Vero E6 cells assessed as reduction of cell viability by CCK8 assay. The following applies: chlorocebus sabaeus. Format: toxicity, cell-based, Vero C1008. On the technique in general: Tetrazolium assays rely on reduction of a dye to a coloured formazan, in cell work by metabolically active cells.
The subject of data set [17] is SARS-CoV. The data set can be described thus: microbe, parasite or virus in culture. Conditions: Severe acute respiratory syndrome-related coronavirus, Vero C1008, 48 h.
A short description of data set [18]: Binding affinity to SARS CoV Main protease incubated for 10 mins by FRET assay. Also on record: species or system Severe acute respiratory syndrome-related coronavirus.
Data set [19] can be described thus: Drug concentration in mouse lung at 20 mg/kg, sc. Format: ADME, organism-based. The following applies: in vivo.
Data set [20] is described as follows: Inhibition of SARS CoV Main protease using Dabcyl-KTSAVLQSGFRKM-E(Edans)-NH2 peptide as substrate by FRET assay. Also on record: species or system Severe acute respiratory syndrome-related coronavirus.
The nature of data set [21]: Half life in mouse at 20 mg/kg, sc. Conditions: in vivo. It counts as ADME, organism-based.
Data set [22] in a line: Mean residence time in mouse at 20 mg/kg, sc. The following applies: in vivo. It counts as ADME, organism-based.
Data set [23] can be described thus: Cytotoxicity against human HCT-8 cells assessed as reduction in cell viability by neutral red uptake assay. Format: toxicity, cell-based.
The test system of data set [24] is SARS-CoV-2. Format: functional, organism-based, Vero E6. The following applies: Severe acute respiratory syndrome coronavirus 2, strain 107, Vero C1008.
Data set [25] in a line: Oral bioavailability in Sprague-Dawley rat. Format: ADME, organism-based. Conditions: in vivo.
A short description of data set [26]: Cytotoxicity against African green monkey Vero cells assessed as reduction in cell viability by neutral red uptake assay. It counts as toxicity, cell-based. Conditions: chlorocebus sabaeus.
A short description of data set [27]: Cytotoxicity against human Caco-2 cells assessed as reduction in cell viability by neutral red uptake assay. It counts as toxicity, cell-based.
Data set [28] can be described thus: Cytotoxicity against human A549 cells assessed as reduction in cell viability by neutral red uptake assay. It counts as toxicity, cell-based.
A short description of data set [29]: Cytotoxicity against dog MDCK cells assessed as reduction in cell viability by neutral red uptake assay. Format: toxicity, cell-based, Canis lupus familiaris.
Data set [30] relates to SARS-CoV-2. The data set can be described thus: Antiviral activity against SARS CoV-2 assessed as inhibition of viral growth. Conditions: Severe acute respiratory syndrome coronavirus 2. Format: functional, organism-based.
Data set [31] can be described thus: Toxicity in rat assessed as median lethal dose. The following applies: in vivo, read-out: MLD.
For data set [32], the system named is SARS-CoV. It counts as functional, organism-based, Vero E6. The following applies: Severe acute respiratory syndrome-related coronavirus, 2019-nCoV/USA_WA1/2020, Vero C1008, 72 h.
The nature of data set [33]: Cytotoxicity against African green monkey Vero E6 cells assessed as reduction of cell viability by XTT assay. The following applies: chlorocebus sabaeus. It counts as toxicity, cell-based, Vero C1008.
Data set [34] can be described thus: Inhibition of SARS CoV Main protease by FRET assay. Also noted: species or system Severe acute respiratory syndrome-related coronavirus.

Peptide text beside a SMILES is read from it.

In turn, `Cc1cc(S(=O)(=O)c2c([N+](=O)[O-])cc(C(F)(F)F)cc2[N+](=O)[O-])c(Cl)cc1Cl` yielded an IC50 in [1] of 0.3 µM.

`CCOC(=O)/C=C/[C@H](C[C@@H]1CCNC1=O)NC(=O)[C@H](CC(C)C)NC(=O)[C@@H](NC(=O)OCc1ccccc1)C(C)C` gave a Ki in [2] of 0.52 µM. The IC50 in data set [3] amounted to 9.1 µM.

Take `O=C(Oc1cncc(Cl)c1)c1cccs1`: the values for the concentration for half-maximal inhibition (IC50) in data set [4] and in data set [5] were 0.5 µM and 0.081 µM, respectively.

With `O=C[C@H](C[C@@H]1CCNC1=O)NC(=O)[C@H](Cc1cccc(F)c1)NC(=O)c1cc2ccccc2[nH]1`, the half-life in data set [6] was 5.5 h; in [14], 7.6 h. Further, the AUC at 24 h stood at 14900 ng·h/mL in [7] and 41500 ng·h/mL in data set [13]. The CC50 in data set [8], in [10], in [12] and in data set [15] was above 100 µM each time. For the same compound, the results for the clearance in data set [9] and in data set [11] were 4.01 mL/min and 5.8 mL/min, respectively.

With `C[C@@H](OC(C)(C)C)[C@H](NC(=O)OCc1ccccc1)C(=O)N[C@@H](CC1CCCCC1)C(=O)N[C@H](C=O)C[C@@H]1CCNC1=O`, the CC50 in data set [16] was above 200 µM. The same compound returned a 50% effective concentration (EC50) in [17] of 0.6 µM. In addition, the inhibitory constant (Ki) in [18] was 0.053 µM.

As to `CC(C)(C)OC(=O)Nc1cccn([C@@H](CC2CC2)C(=O)N[C@@H](C[C@@H]2CCNC2=O)C(=O)C(=O)NCc2ccccc2)c1=O`, the Ct in data set [19] was 13 ng/g. The compound further registered a half-inhibitory concentration (IC50) in data set [20] of 0.9 µM. The half-life in data set [21] is 1.8 h. The same compound returned an MRT in data set [22] of 2.7 h.

With `CC(C)C[C@H](NC(=O)OCC1CCC(F)(F)CC1)C(=O)N[C@@H](C[C@@H]1CCNC1=O)C(O)S(=O)(=O)O` (stereo partly drawn), the CC50 in [8], in data set [23], in [12] and in [15] was above 100 µM throughout.

`CC1(C)[C@@H]2[C@@H](C(=O)N[C@H](C=O)C[C@@H]3CCNC3=O)N(C(=O)COc3ccc(OC(F)(F)F)cc3)C[C@@H]21` came in with a concentration giving a half-maximal response (EC50) in data set [24] of 0.86 µM. Besides, in [25], the bioavailability was 14.6%.

With `CCC[C@H](NC(=O)[C@H](CC(C)C)NC(=O)OCc1ccccc1)C(=O)C(=O)NCc1ccccn1`, the CC50 in data set [26], in data set [27], in [28] and in [29] was above 100 µM in each case.

As for `O=c1c2ccccc2[se]n1Cc1ccco1`, in [5], the IC50 is 0.074 µM and the inhibitory constant (Ki) was 0.031 µM. For the same compound, in data set [30], the EC50 was determined as 4.67 µM. In addition, in data set [31], the LD50 was above 4600 mg/kg.

`CCOC(=O)/C=C/[C@H](C[C@@H]1CCNC1=O)NC(=O)[C@H](CC(C)C)NC(=O)[C@@H](NC(=O)OCc1ccccc1)[C@@H](C)OC(C)(C)C` yielded a Ki in [2] of 0.058 µM. The compound further had an EC50 in data set [32] of 2.88 µM. For the same compound, the half-maximal inhibitory concentration (IC50) in data set [5] worked out at 0.151 µM.

On to `CCOC(=O)/C=C/[C@H](Cc1ccccc1)NC(=O)[C@H](Cc1ccccc1)NC(=O)/C=C\c1ccc(N(C)C)cc1`, for which the cytotoxic concentration (CC50) in [33] was above 200 µM. The Ki in data set [2] was 0.66 µM. The compound further showed an EC50 in data set [32] of 18 µM.

For the compound `CC(C)C[C@H](NC(=O)OC1CCC(F)(F)CC1)C(=O)N[C@@H](C[C@@H]1CCNC1=O)C(O)S(=O)(=O)O` (stereo partly drawn), the half-maximal cytotoxic concentration (CC50) in data set [8], in data set [23], in data set [12] and in data set [15] was above 100 µM throughout. Moreover, the IC50 in data set [34] stood at 2.2 µM.

`CC(C)C[C@H](NC(=O)/C=C\c1ccccc1)C(=O)N[C@H](C=O)C[C@@H]1CCCNC1=O` returned a Ki in [18] of 0.053 µM.

Consider `CC(=O)N[C@H](C(=O)N[C@H](C(=O)N[C@@H](CC(C)C)C(=O)N[C@@H](CCC(=O)N(C)C)C(=O)Cn1[nH]c(=O)c2c([N+](=O)[O-])cccc2c1=O)[C@@H](C)OCc1ccccc1)C(C)C`, for which, in data set [1], the IC50 is 0.6 µM.

Turning to `CSCC[C@@H](C=O)NC(=O)[C@H](CC(C)C)NC(=O)[C@H](CC(C)C)NC(C)=O` (Ac-Leu-Leu-Met-aldehyde), the CC50 in [26], in data set [27], in data set [28] and in data set [29] was above 100 µM each time.
